Data taken from patent US5274098A, “Amidinophenylalanine derivatives, process for their preparation, their use and compositions containing them” (Behringwerke Aktiengesellschaft, priority 1991, dated 1993).

How the values were obtained:
thrombin [1] = conditions: cited from earlier work
human thrombin [2] = biological target: T1, human thrombin (Homo sapiens, UniProt P00734); assay: IC50 value of the thrombin inhibition (Chromozym TH, pNA release at 405 nm); format: biochemical; conditions: 0.1M tris-HCl/0.15 M NaCl pH 8.2, 1 h preincubation, substrate Chromozym TH 5×10^-5 M
T1 construct: human thrombin
Description: Determination of the IC50 value of the thrombin inhibition:
The compounds were incubated with human thrombin in 0.1M tris-HCl buffer/0.15 M NaCl pH 8.2 in increasing concentrations.

thrombin [3] = assay: Activity with respect to inhibition of thrombin / antithrombotic activity, general statements; format: biochemical; conditions: relative to the glycine compound
Source text: The inhibitors according to the invention are examined according to various criteria to assess their activity, preferably these are the determination of the Ki value, the IC50 value or the partial thromboplastin time (PTT) in vivo and in vitro.

human thrombin [4] = biological target: T1, human thrombin; assay: KI value for thrombin (Lineweaver and Burk, Chromozym TH); format: biochemical; conditions: inhibitor conc. approx. IC50, Chromozym TH 0.7-45×10^-5 mol/l, read-out: Thrombin inhibition KI
Description: Determination of the KI value for thrombin:
The KI values for the compounds investigated were determined using the abovementioned thrombin solution. To do this, thrombin was incubated with a concentration of inhibitor which approximately corresponded to the IC50 value determined in the abovementioned test.

IC50 (human thrombin [2]) [nM] | Ki (human thrombin [4]) [nM] | SMILES | type of thrombin inhibition (prior art, in words) (thrombin [1]) | exceeds the activity of the glycine compound by a factor (thrombin [3])
– | – | CC1CNc2c(cccc2S(=O)(=O)N[C@@H](CCCNC(=N)N)C(=O)N2CC[C@@H](C)C[C@@H]2C(=O)O)C1 (stereo partly shown) [MD 805, monohydrate] | competitive specific thrombin inhibitor | –
1.3 | 2.6 | N=C(N)c1ccc(C[C@@H](NC(=O)NNS(=O)(=O)c2ccc3ccccc3c2)C(=O)N2CCCCC2)cc1 [Nas--AGly--Aph--Pip, Beta-naphthylsulfonyl-azaglycyl-D-p-amidinophenylalanylpiperidide] | – | 5
– | 0.092 | Cc1c(C)c(S(=O)(=O)NNC(=O)N[C@H](Cc2ccc(C(=N)N)cc2)C(=O)N2CCCCC2)c(C)c2c1OC(C)(C)CC2 [Pmc--AGly--Aph--Pip, Pmc-Azaglycyl-D-p-amidinophenylalanylpiperidide] | – | –
1.4 | 1.3 | Cc1c(C)c(S(=O)(=O)NCC(=O)NC(Cc2ccc(C(=N)N)cc2)C(=O)N2CCCCC2)c(C)c2c1OC(C)(C)CC2 (stereo not shown) [Pmc--Gly--Aph--Pip, reference compound] | – | –
